From patent US10501434B2, “Configurational stereoisomer of difethialone, composition and rodenticidal bait comprising same, and process for controlling target rodent pests” (priority 2015, dated 2019)

Format: in vivo, rat
Settings: liver of rats which died between D9 and D10 after consuming the 11.8 ppm bait
Method: The acetonitrile solution containing difethialone is analysed by high-pressure liquid chromatography on a LUX® Cellulose-3 chiral column (Phenomenex, Le Pecq, France) (150×2 mm, particle size of 3 μm) as described in point A2) above.
The values, expressed as micrograms of laevorotatory enantiomer of said hetero-stereoisomer (“DFN-Hetero-laevo”) per gram of liver, are given in table 3 below.

O=c1sc2ccccc2c(O)c1C1CC(c2ccc(-c3ccc(Br)cc3)cc2)Cc2ccccc21 (stereo not shown) [Total difethialone, 3-(4′-bromobiphenyl-4-yl)-1-(4-hydroxythiocoumarin-3-yl)-1,2,3,4-tetrahydronaphthalene]
Hepatic content, Mean: 11.3 µg/g
